From patent US20220281848A1, “PYRAZOLE-SUBSTITUTED PYRROLIDINONES AS HERBICIDES” (FMC Corporation, priority 2019, published 2022)

Tests used:
Type in all cases: in vivo
[1] = test system: maize; assay: Test D pre-emergence, maize seed treated with a herbicide safener; conditions: ZEAMX, preemergent, 20 DAA
Protocol: A formulation containing 50 g/L of the test chemical was prepared by dissolving the active ingredient in a mixture of organic solvents and emulsifier, details of which are provided in the table. This formulation was then mixed with a small, variable amount of acetone to aid dissolution, before addition of a 0.2% v/v aqueous solution of an adjuvant, as the aqueous diluent, to form an aqueous spray solution which contains a predetermined concentration of the active ingredient.
This aqueous spray solution was then sprayed onto plants including maize and wheat that had been seed treated with a herbicide safener, after one day's cultivation (for pre-emergence) or after about 12 days' cultivation (for post-emergence). The plants were grown from seeds sown in standard soil, placed in a glasshouse under controlled conditions (at 24/18° C. or 20/16° C., day/night; 16 h light; 65% humidity). After spray application the plants were then grown in a glasshouse under the same conditions and watered twice daily. After 15 d for post-emergence and 20 DAA for pre-emergence the test was evaluated (100=total damage to plant; 0=no damage to plant).

[2] = test system: redroot pigweed (Amaranthus retroflexus, AMARE); assay: Test A pre-emergence, redroot pigweed; conditions: after 13 d
How it was run: (§1)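 Pots of soil sown, sprayed at day 1 post-sowing: test compound at 15.625/62.5/250 g/ha in acetone:water 1:1 + 0.5% Tween 20. Glasshouse 24/16° C., 14 h light, 65% RH, watering twice daily. Readout: % damage after 13 d.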

[3] = test system: barnyardgrass (Echinochloa crus-galli, ECHCG); assay: Test A pre-emergence, barnyardgrass; conditions: after 13 d
How it was run: as §1

[4] = test system: corn (Zea mays, ZEAMX); assay: Test A post-emergence, corn; conditions: after 13 d
How it was run: (§2)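 Plants were grown 8 d in a glasshouse (24/16° C day/night, 14 h light, 65% humidity), then sprayed post-emergence at 15.625, 62.5 or 250 g/ha in acetone/water (50:50) with 0.5% Tween 20. Damage was scored visually after 13 d (0 = none, 100 = total).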

[5] = test system: giant foxtail (Setaria faberi, SETFA); assay: Test A post-emergence, giant foxtail; conditions: after 13 d
How it was run: as §2

Q: For `COc1c(F)cccc1NC(=O)C1C(=O)N(C)CC1c1cc(C(F)(F)F)n(C)n1` (racemic) [Compound 18], which “damage to plant (100=total damage to plant; 0=no damage to plant), ZEAMX” value ([1]; rate 15) is on record?
A: 0

Q: And the “damage to plant (100=total damage to plant; 0=no damage to plant), ZEAMX” value ([1]; rate 30)?
A: 0

Q: And the “damage to plant (100=total damage to plant; 0=no damage to plant), ZEAMX” value ([1]; rate 60)?
A: 0

Q: And the “damage to plant (100=total damage to plant; 0=no damage to plant), ZEAMX” value ([1]; rate 130)?
A: 0

Q: What about the “damage to plant (100=total damage to plant; 0=no damage to plant), ZEAMX” value ([1]; rate 250) of the same compound?
A: 0

Q: And the “damage to plant (100=total damage to plant; 0=no damage to plant), ZEAMX” value ([1]; rate 500)?
A: 0

Q: What about the “damage to plant (100=total damage; 0=no damage) AMARE” value ([2]; Pre-Emergence at 15.625 g/ha) of the same compound?
A: 0

Q: And the “damage to plant (100=total damage; 0=no damage) AMARE” value ([2]; Pre-Emergence at 62.5 g/ha)?
A: 0

Q: And the “damage to plant (100=total damage; 0=no damage) AMARE” value ([2]; Pre-Emergence at 250 g/ha)?
A: 0

Q: What about the “damage to plant (100=total damage; 0=no damage) ECHCG” value ([3]; Pre-Emergence at 15.625 g/ha) of the same compound?
A: 90

Q: And the “damage to plant (100=total damage; 0=no damage) ECHCG” value ([3]; Pre-Emergence at 62.5 g/ha)?
A: 90

Q: And the “damage to plant (100=total damage; 0=no damage) ECHCG” value ([3]; Pre-Emergence at 250 g/ha)?
A: 90

Q: What about the “damage to plant (100=total damage; 0=no damage) ZEAMX” value ([4]; Post-Emergence at 15.625 g/ha) of the same compound?
A: 0

Q: What about the “damage to plant (100=total damage; 0=no damage) ZEAMX” value ([4]; Post-Emergence at 62.5 g/ha) of the same compound?
A: 30

Q: What about the “damage to plant (100=total damage; 0=no damage) ZEAMX” value ([4]; Post-Emergence at 250 g/ha) of the same compound?
A: 80

Q: And the “damage to plant (100=total damage; 0=no damage) SETFA” value ([5]; Post-Emergence at 15.625 g/ha)?
A: 50

Q: And the “damage to plant (100=total damage; 0=no damage) SETFA” value ([5]; Post-Emergence at 62.5 g/ha)?
A: 70

Q: What about the “damage to plant (100=total damage; 0=no damage) SETFA” value ([5]; Post-Emergence at 250 g/ha) of the same compound?
A: 70
